Measured values as given in patent US11760984B2, “CRISPR protein inhibitors” (THE BROAD INSTITUTE, INC., priority 2017, dated 2023).
Converted amounts (≈) assume the structure as drawn.

Columns and labels:
[1] = Solubility in PBS determined by mass spectroscopy; format: physicochemical; settings: aqueous buffer, 24 h incubation at room temperature, read-out: solubility: no detectable aggregation up to
Procedure: FIG. 15—The solubility of BRD7087 compound in PBS as determined by mass spectroscopy after 24 h of incubation at room temperature. Compounds Antipyrine and Clotrimazole were used as positive controls.
FIG. 59. The solubility of BRD7087 compound in PBS as determined by Mass spectroscopy after 24 h of incubation at room temperature. Compounds Antipyrine and Clotrimazole have been used as the positive controls.

dCas9 = experiment: dCas9-based transcriptional activation of HBG1 gene in HEK293FT cells (RT-qPCR); format: cell-based; settings: for inhibition of HBG1 transcriptional activation: HEK293FT cells, 48 hours
Procedure: Transcription activation experiments and quantitative RT-PCR analyses. For transcription activation experiments 250,000 cells/well were plated in a 12 well plate. The cells were transiently transfected with a 1:1:1 mass ratio of the dCas9 plasmid, MS2-P65-HSF1 effector plasmid and the sgRNA plasmid targeting the HBG1 gene or an RFP control plasmid. A total of 1.6 μg plasmid DNA was transfected using Lipofectamine 2000 (Life Technologies) according to manufacturer's protocol. Immediately after transfection, the cells were treated with an appropriate dose of the small molecule inhibitors for 48 hours following which the cells were harvested and RNA was extracted using the EZNA Total RNA kit I (Omega) as per manufacturer's instructions. 1 μg total cellular RNA was used to perform reverse transcription using the High-Capacity cDNA Reverse Transcription Kit (Applied Biosystems) or the qScript cDNA Synthesis Kit (QuantaBio). qPCR reactions were performed to quantify RNA expression using the TaqMan probes (Life Technologies, HBG1/HBG2: Hs00361131_g1 and ACTB: Hs01060665_g1) and TaqMan Fast Advanced Master Mix (Life Technologies) in 5 μL multiplexed reactions and 384-well format using the LightCycler 480 Instrument II (Roche). For each sample, six technical replicates were performed. Data were analyzed using the LightCycler 480 software (Roche) by the ΔΔCt method: Ct values for the gene of interest (HBG1) were normalized to Ct values for the housekeeping gene (ACTB) and fold-changes in the expression level of the gene of interest were normalized to RFP-transfected control. The data are reported as mean±S.E.M. for technical replicates.
For transcription activation experiments 250,000 cells/well were plated in a 12 well plate. […] Data were analyzed using the LightCycler 480 software (Roche) by the ΔΔCt method: Ct values for the gene of interest (HBG1) were normalized to Ct values for the housekeeping gene (ACTB) and fold-changes in the expression level of the gene of interest were normalized to RFP-transfected control. […]

SMILES: COc1ccc(-c2ccc3c(c2)[C@H]2[C@H](CCN2Cc2ccncc2)[C@@H](CO)N3)cc1 [BRD5779, ((3aR,4S,9bR)-8-(4-Methoxyphenyl)-1-(pyridin-4-ylmethyl)-2,3,3a,4,5,9b-hexahydro-1H-pyrrolo[3,2-c]quinolin-4-yl)methanol]
- solubility at 24 h [1]: ~75 µM (≈ 30.1 µg/mL)
- inhibition of HBG1 transcriptional activation (dCas9): dose-dependent inhibition

SMILES: OC[C@H]1Nc2ccc(-c3cccc(F)c3)cc2[C@H]2[C@@H]1CCN2Cc1ccncc1 [BRD7087, ((3aR,4S,9bR)-8-(3-Fluorophenyl)-1-(pyridin-4-ylmethyl)-2,3,3a,4,5,9b-hexahydro-1H-pyrrolo[3,2-c]quinolin-4-yl)methanol]
- solubility at 24 h [1]: ~75 µM (≈ 29.2 µg/mL)
- inhibition of transcriptional activation (dCas9; 10 μM, HBG1 gene): > 60%
- inhibition of HBG1 transcriptional activation (dCas9): dose-dependent inhibition
